On the set-up of series [1]: species or system Long-Evans female rats. The note with it: rat, in vivo. The method, then: Ten Long-Evans female rats were divided into two groups of five each. The rats were fed Purina® lab chow mixed with CDCA or dried hog bile. The dried hog bile contains approximately 25% CDCA and approximately 40% HDCA and was mixed in the feed at four times the concentration as CDCA so that each group of rats would receive approximately 600 mg. CDCA/kg./day. Following a 2 week treatment, the 10 rats plus five control rats were sacrificed and the blood collected for liver enzyme determinations.

Series [2] is described as follows: Pharmacological studies employing rats: liver damage and safening effect (summary statements). In kind it is in vivo. From the text: The compositions are generally administered in a ratio of CDCA to HDCA in the range of from about 0.7 to about 2.0 and, preferably in the range of from about 0.8 to about 1.5. […] Hog bile generally contains from about 10 to about 50% CDCA and from about 10 to about 50% of HDCA in addition to other bile acids.

Where [3] appears, read: CDCA alone, or HDCA with CDCA relative to CDCA.

The results in this text go back to patent publication US4079133A, “Safer method for dissolving gallstones combining hyodeoxycholic acid with chenodeoxycholic acids” (Warren-Teed Laboratories, Inc., priority 1976, dated 1978).

Take `C[C@H](CCC(=O)O)[C@H]1CC[C@H]2[C@@H]3[C@H](O)C[C@@H]4C[C@H](O)CC[C@]4(C)[C@H]3CC[C@]12C` [CDCA, 3α, 7α-dihydroxy-5β-cholanic acid]: in series [1], the “Bodyweights, Week 0” value is given as 284.6 gms; the “Bodyweights, Week 1” value came out at 256.4 gms; the “Feed Consumption, Week 0” value was found to be 18.6 gms/da; the “Feed Consumption, Week 2” value is 11.7 gms/da. The periportal hepatitis entry in series [2] (CDCA alone) was “slight to mild periportal hepatitis”. Besides, in series [2] (setting [3]), the “alkaline phosphatase (alk. phos.) in the blood” value was “elevations”, the “serum glutamic pyruvic transaminase (SGPT) in the blood” value is recorded as “elevations” and the “serum glutamic-oxaloacetic transaminase (SGOT) in the blood” value is reported as “elevations”. In addition, the “nuclear enlargement of the hepatocytes” value in series [2] (CDCA alone, slight to mild periportal hepatitis also seen) is given as “nuclear enlargement of the hepatocytes”.
